From patent US11447445B2, “Diabetes and metabolic syndrome treatment with a novel dual modulator of soluble epoxide hydrolase and peroxisome proliferator-activated receptors” (priority 2015, dated 2022)
≈ marks a conversion by molar mass, not a printed value. Like-named read-outs stand apart in the source and are kept apart here.

How the values were obtained:
[1] = Water solubility approximation; format: physicochemical; conditions: PBS with 0.01% Polysorbate 20, aqueous with cosolvent or surfactant or cyclodextrin, kinetic from dmso stock; PBS pH 7.4, 0.01% Polysorbate 20, 1% DMSO; precipitation at 650 nm; read-out: w.s. (water solubility)
Method: PBS at pH 7.4 with 0.01% Polysorbate 20 (Tween) was combined with 1% of a DMSO solution of the inquired compound in a 96-well transparent flat bottom microtiter plate. Precipitation of the compound was measured at 650 nm with a Tecan Infinite 200 (Tecan Group Ltd, Mannedorf, Switzerland).

recombinant human sEH = molecular target: T1, recombinant human sEH (Homo sapiens, UniProt P34913); assay: biochemical
T1 sequence (P34913 1-555): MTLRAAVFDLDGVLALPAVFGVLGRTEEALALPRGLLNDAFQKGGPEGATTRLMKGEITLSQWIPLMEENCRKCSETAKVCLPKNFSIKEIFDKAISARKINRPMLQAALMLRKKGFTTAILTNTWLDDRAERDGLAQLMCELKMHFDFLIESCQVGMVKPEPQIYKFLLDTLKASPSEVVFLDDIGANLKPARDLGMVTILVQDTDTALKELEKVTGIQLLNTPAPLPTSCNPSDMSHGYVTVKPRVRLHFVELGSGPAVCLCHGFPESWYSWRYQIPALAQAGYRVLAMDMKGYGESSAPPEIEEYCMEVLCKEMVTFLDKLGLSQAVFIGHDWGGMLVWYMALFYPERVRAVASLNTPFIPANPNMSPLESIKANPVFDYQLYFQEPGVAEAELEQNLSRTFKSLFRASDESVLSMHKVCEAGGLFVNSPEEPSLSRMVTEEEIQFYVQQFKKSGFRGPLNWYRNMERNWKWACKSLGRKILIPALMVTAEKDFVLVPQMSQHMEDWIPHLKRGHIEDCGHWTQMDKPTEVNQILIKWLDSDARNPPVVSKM

PPARα = molecular target: T2, PPARα (Homo sapiens, UniProt Q07869); format: cell-based; conditions: for PPARα activation @10 μM: at 10 μM, compared to GW7647 1 μM
T2 construct: expressed in transfected cells; host or cells: COS-7
Method: (§1) COS-7 cells (PPAR) were grown in DMEM high glucose, supplemented with 10% fetal calf serum (FCS), 1% sodium pyruvate (SP) and 1% penicillin/streptomycin (PS) at 37° C. and 5% CO2. Used plasmids for PPAR transactivation assay are shown under supporting informations.
(§2) The day before transfection, COS-7 cells were seeded in 96-well plates with a density of 30,000 cells per well. Transient transfection was carried out using Lipofectamine LTX reagent (Invitrogen, Carlsbad, Calif., USA) according to the manufacturer's protocol with pFR-Luc (Stratagene), pRL-SV40 (Promega) and the Ga14-fusion receptor plasmids (pFA-CMV-hPPAR-LBD) of the respective PPAR subtype. 5 h after transfection, medium was changed to DMEM without phenol red and 10% FCS, supplemented with 1% SP, 1% PS and 1% L-glutamine, now additionally containing 0.1% DMSO and the respective test compound or 0.1% DMSO alone as untreated control. Each concentration was tested in triplicate wells and each experiment was repeated independently at least three times. Following overnight incubation with the test compounds, cells were assayed for luciferase activity using Dual-Glo™ Luciferase Assay System (Promega) according to the manufacturer's protocol. Luminescence was measured with an Infinite m200 luminometer (Tecan Deutschland GmbH). Each concentration of the compounds was tested in triplicate wells. Normalization for transfection efficacy and cell growth was done by division of the firefly luciferase data by renilla luciferase data resulting in relative light units. Activation factors were obtained by dividing by DMSO control. […] All compounds were evaluated by comparison of the achieved maximum effect to that of the reference compound (pioglitazone for PPARγ, GW7647 for PPARa, and L165041 for PPARS each with 1 μM). Data are expressed as mean±SE; n≥3.
(§3) The Gal4-fusion receptor plasmids pFA-CMV-PPARa-LBD, pFA-CMV-PPARS-LBD and pFA-CMV-PPARγ-LBD containing the hinge region and ligand binding domain (LBD) for each of the PPAR subtypes, respectively, were constructed by integrating cDNA fragments obtained from PCR amplification of human monocytes into the SmaI/XbaI cleavage site of the pFA-CMV vector (Stratagene, La Jolla, Calif., USA) and have already been published. […] Frame and sequence of the fusion receptors were verified by sequencing. pFR-Luc (Stratagene) was used as reporter plasmid and pRL-SV40 (Promega) for normalization of transfection efficacy and cell growth.

PPARδ = molecular target: T3, PPARδ (Homo sapiens, UniProt Q03181); assay: PPAR transactivation assay in COS-7 cells (Gal4-hPPAR-LBD, luciferase); format: cell-based
T3 construct: expressed in transfected cells; host or cells: COS-7
Method: as §1, §2, §3

[2] = at 10 μM, read-out: sEH inhibition @10 μM (converted)

T3 sequence (Q03181 211-439): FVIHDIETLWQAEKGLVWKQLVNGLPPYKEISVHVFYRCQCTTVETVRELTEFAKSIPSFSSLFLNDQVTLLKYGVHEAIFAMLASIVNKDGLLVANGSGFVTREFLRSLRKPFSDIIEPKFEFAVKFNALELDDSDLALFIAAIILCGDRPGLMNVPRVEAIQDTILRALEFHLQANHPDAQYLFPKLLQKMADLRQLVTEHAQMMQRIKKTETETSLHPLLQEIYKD
T2 sequence (Q07869 239-466): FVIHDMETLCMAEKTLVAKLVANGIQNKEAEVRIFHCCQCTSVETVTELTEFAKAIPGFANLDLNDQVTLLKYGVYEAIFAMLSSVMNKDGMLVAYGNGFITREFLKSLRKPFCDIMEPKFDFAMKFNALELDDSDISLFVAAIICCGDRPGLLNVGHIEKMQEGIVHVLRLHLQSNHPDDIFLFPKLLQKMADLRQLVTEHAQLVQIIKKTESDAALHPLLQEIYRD

| SMILES | solubility [1] [µM] | IC50 (recombinant human sEH; read-out: IC50 sEH (converted)) [nM] | EC50 PPARα (PPARα; i.a. = inactive) | EC50 PPARδ (PPARδ; i.a. = inactive) | further results |
| --- | --- | --- | --- | --- | --- |
| CCC/C(=C\c1ccc(C(=O)NCc2ccccc2C(F)(F)F)cc1)C(=O)OCC [Compound 18a, Ethyl (E)-4-[N-((2-trifluoromethyl)benzyl)benzamide]-alpha-propylcinnamate] | 10 (≈ 4.19 µg/mL) | 160 ± 60 |  |  |  |
| O=C(O)CCc1ccc(C(=O)NCc2ccccc2C(F)(F)F)cc1 [Compound 16c, 3-[4-(N-((2-trifluoromethyl)benzyl)benzamide)]propionic acid] | 500 (≈ 176 µg/mL) | 9000 ± 1700 | i.a. | i.a. |  |
| CCC(Cc1ccc(C(=O)NCc2ccccc2)cc1)C(=O)O (stereo not shown) [Compound 2c, 2-Ethyl 3-[4-(N-benzylbenzamide)]propionic acid] |  |  |  |  | EC50 PPARα (PPARα): n.t. i.a. i.a. n.t.; EC50 PPARδ (PPARδ): n.t. i.a. i.a. n.t.; inhibition at 10 µM (recombinant human sEH; read-out: sEH inhibition @10 μM): 4% |
| CCOC(=O)/C(C)=C/c1ccc(C(=O)NCc2ccccc2C(F)(F)F)cc1 [Compound 17a, Ethyl (E)-4-[N-((2-trifluoromethyl)benzyl)benzamide]-alpha-methylcinnamate] | 10 (≈ 3.91 µg/mL) | 100 ± 30 |  |  |  |
| CC/C(=C\c1ccc(C(=O)NCc2ccc(Cl)cc2)cc1)C(=O)O [Compound 11d, (E)-4-[N-((4-Chloro)benzyl)benzamide]-alpha-ethylcinnamic acid] | 100 (≈ 34.4 µg/mL) | 5000 |  |  |  |
| CCOC(=O)C(CC)Cc1ccc(C(=O)NCc2ccc(OC)cc2)cc1 (stereo not shown) [Compound 10b, Ethyl 2-ethyl 3-[4-(N-((4-methoxy)benzyl)benzamide)]propanoate] | 10 (≈ 3.69 µg/mL) |  | n.t. i.a. i.a. n.t. | n.t. i.a. i.a. n.t. |  |
| CCOC(=O)/C(=C/c1ccc(C(=O)NCc2ccc(Cl)cc2)cc1)CC [Compound 11a, Ethyl (E)-4-[N-((4-chloro)benzyl)benzamide]-alpha-ethylcinnamate] | 10 (≈ 3.72 µg/mL) | 3000 ± 1400 |  |  |  |
| CCC(Cc1cccc(C(=O)NCc2ccccc2C(F)(F)F)c1)C(=O)O (stereo not shown) [Compound 15c, 2-Ethyl 3-[3-(N-((2-trifluoromethyl)benzyl)benzamide)]propionic acid] |  | 900 ± 80 |  | i.a. | PPARα activation @10 μM (PPARα): @10 μM (34%) |
| CCC(Cc1ccc(C(=O)NCc2ccc(Cl)cc2)cc1)C(=O)O (stereo not shown) [Compound 11c, 2-Ethyl 3-[4-(N-((4-chloro)benzyl)benzamide)]propionic acid] | 500 (≈ 173 µg/mL) |  | n.t. i.a. i.a. n.t. | n.t. i.a. i.a. n.t. |  |
| CCOC(=O)/C(=C/c1ccc(C(=O)NCc2ccccc2C(F)(F)F)cc1)CC [Compound 1a] |  | 63 ± 3 | i.a. | i.a. |  |
| CC/C(=C\c1ccc(C(=O)NCc2ccc(C(F)(F)F)cc2)cc1)C(=O)O [Compound 8d, (E)-4-[N-((4-Trifluoromethyl)benzyl)benzamide]-alpha-ethylcinnamic acid] | 500 (≈ 189 µg/mL) | 2800 |  |  |  |
| C/C(=C\c1ccc(C(=O)NCc2ccccc2C(F)(F)F)cc1)C(=O)O [Compound 17d, (E)-4-[N-((2-Trifluoromethyl)benzyl)benzamide]-alpha-methylcinnamic acid] | 500 (≈ 182 µg/mL) | 4900 ± 60 |  |  |  |
| CCC(Cc1ccc(C(=O)NCc2ccccc2Cl)cc1)C(=O)O (stereo not shown) [Compound 4c, 2-Ethyl 3-[4-(N-((2-chloro)benzyl)benzamide)]propionic acid] |  |  | n.t. i.a. i.a. n.t. | n.t. i.a. i.a. n.t. | inhibition at 10 µM (recombinant human sEH; [2]): 20% |
| CCOC(=O)/C(=C/c1ccc(C(=O)NCc2ccccc2C(F)(F)F)cc1)c1ccccc1 [Compound 19a, Ethyl (E)-4-[N-((2-trifluoromethyl)benzyl)benzamide]-alpha-phenylcinnamate] | 1 (≈ 0.453 µg/mL) | 160 ± 30 |  |  |  |
| CCC(Cc1ccc(C(=O)NCc2ccccc2C)cc1)C(=O)O (stereo not shown) [Compound 3c, 2-Ethyl 3-[4-(N-((2-methyl)benzyl)benzamide)]propionic acid] |  |  | i.a. | n.t. i.a. i.a. n.t. | inhibition at 10 µM (recombinant human sEH; [2]): 25% |
| CCOC(=O)/C(=C/c1ccc(C(=O)NCc2ccccc2OC(F)(F)F)cc1)CC [Compound 6a, Ethyl (E)-4-[N-((2-trifluoromethoxy)benzyl)benzamide]-alpha-ethylcinnamate] | 10 (≈ 4.21 µg/mL) | 60 ± 13 |  |  |  |
| O=C(O)/C(=C/c1ccc(C(=O)NCc2ccccc2C(F)(F)F)cc1)c1ccccc1 [Compound 19d, (E)-4-[N-((2-Trifluoromethyl)benzyl)benzamide]-alpha-phenylcinnamic acid] | 50 (≈ 21.3 µg/mL) | 800 ± 10 |  |  |  |
| O=C(NCc1ccccc1C(F)(F)F)c1ccc(C2CC2C(=O)O)cc1 (stereo not shown) [Compound 22, 2-[4-(N-((2-trifluoromethyl)benzyl)benzamide)]cyclopropan carboxylic acid] |  | 5500 ± 200 | i.a. | i.a. |  |
| CCOC(=O)C(CC)Cc1cccc(C(=O)NCc2ccccc2C(F)(F)F)c1 (stereo not shown) [Compound 15b, Ethyl 2-ethyl 3-[3-(N-((2-trifluoromethyl)benzyl)benzamide)]propanoate] |  | 27 ± 2 | i.a. | i.a. |  |
| CCOC(=O)C(CC)Cc1ccc(C(=O)NCc2ccc(Cl)cc2)cc1 (stereo not shown) [Compound 11b, Ethyl 2-ethyl 3-[4-(N-((4-chloro)benzyl)benzamide)]propanoate] | 10 (≈ 3.74 µg/mL) |  | n.t. i.a. i.a. n.t. | n.t. i.a. i.a. n.t. |  |
| CC/C(=C\c1ccc(C(=O)NCc2ccccc2C(F)(F)F)cc1)C(=O)O [Compound 1d, (E)-4-[N-((2-Trifluoromethyl)benzyl)benzamide]-alpha-ethylcinnamic acid] |  | 120 ± 10 | i.a. | i.a. |  |
| CCOC(=O)/C(=C/c1ccc(C(=O)NCc2ccc(OC)cc2)cc1)CC [Compound 10a, Ethyl (E)-4-[N-((4-methoxy)benzyl)benzamide]-alpha-ethylcinnamate] | 10 (≈ 3.67 µg/mL) |  |  |  | IC50 (recombinant human sEH): 550 nM |
| CCOC(=O)C(CC)Cc1ccc(C(=O)NCc2ccccc2OC(F)(F)F)cc1 (stereo not shown) [Compound 6b, Ethyl 2-ethyl 3-[4-(N-((2-trifluoromethoxy)benzyl)benzamide)]propanoate] | 100 (≈ 42.3 µg/mL) |  | n.t. i.a. i.a. n.t. | n.t. i.a. i.a. n.t. |  |
| CCOC(=O)C(CC)Cc1ccc(C(=O)NCc2ccc(OC)cc2C(F)(F)F)cc1 (stereo not shown) [Compound 14b, Ethyl 2-ethyl 3-[4-(N-(4-methoxy(2-trifluoromethyl)benzyl)benzamide)]propanoate] |  |  |  | n.t. i.a. i.a. n.t. | PPARα activation @10 μM (PPARα): 22% |
| CCC(Cc1ccc(C(=O)NCc2ccc(F)cc2)cc1)C(=O)O (stereo not shown) [Compound 7c, 2-Ethyl 3-[4-(N-((4-fluoro)benzyl)benzamide)]propionic acid] |  |  | n.t. i.a. i.a. n.t. | n.t. i.a. i.a. n.t. | inhibition at 10 µM (recombinant human sEH; [2]): 28% |
| CCC/C(=C\c1ccc(C(=O)NCc2ccccc2C(F)(F)F)cc1)C(=O)O [Compound 18d, (E)-4-[N-((2-Trifluoromethyl)benzyl)benzamide]-alpha-propylcinnamic acid] | 5 (≈ 1.96 µg/mL) | 700 ± 60 |  |  |  |
